These results are taken from PMC10893271, “Polymeric Nanoparticles as Oral and Intranasal Peptide Vaccine Delivery Systems: The Role of Shape and Conjugation” (Vaccines, 2024).

No end group written: not given here.

In this data set the target is T1, bovine trypsin (Bos taurus, UniProt P00760).
T1 sequence (P00760 24-246): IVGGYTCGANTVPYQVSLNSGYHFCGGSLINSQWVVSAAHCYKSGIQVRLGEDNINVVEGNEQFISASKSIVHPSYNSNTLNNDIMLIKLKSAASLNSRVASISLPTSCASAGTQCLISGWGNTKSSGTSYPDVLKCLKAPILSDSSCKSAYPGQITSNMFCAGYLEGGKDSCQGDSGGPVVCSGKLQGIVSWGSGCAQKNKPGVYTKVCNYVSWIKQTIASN
Kind of data set: In vitro stability against proteolysis. Conditions: bovine trypsin (1000 U/mL stock, 100 µL) with 1 mM CaCl2 in PBS + 400 µL antigen solution (PJ8 1.25 mg/mL in PBS); 37 °C; HPLC with calibration curve.

For “AKFVAAWTLKAAAQAEDKVKQSREAKKQVEKALKQLEDKVQ-NH2 [PJ8]”, the “time to full degradation by trypsin” value is recorded as no more than 30 min.
